This experiment deals with BDF1 mice, P388 leukemia ip, median survival T/C. The experiment can be described thus: NCI In Vivo Anticancer Drug Screen. Data for tumor model P388 Leukemia (intraperitoneal) in B6D2F1 (BDF1) mice. The conditions noted are these: endpoint: median survival time, higher = longer survival. The essentials: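 Steps: implant the tumour, treat one group with compound and another with vehicle, record survival, then divide treated by control.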

Setting [1] is: dose: 50.0 mg/kg/injection, schedule: Q04DX003 (ip), vehicle: saline with Tween-80.
[2] abbreviates: dose: 100.0 mg/kg/injection, schedule: Q04DX003 (ip), vehicle: saline with Tween-80.
Setting [3] is: dose: 12.5 mg/kg/injection, schedule: Q01DX009 (ip), vehicle: saline with Tween-80.
[4] abbreviates: dose: 25.0 mg/kg/injection, schedule: Q01DX009 (ip), vehicle: saline with Tween-80.
The mark [5] stands for this setting: dose: 50.0 mg/kg/injection, schedule: Q01DX009 (ip), vehicle: saline with Tween-80.
Where [6] appears, read: dose: 200.0 mg/kg/injection, schedule: Q01DX009 (ip), vehicle: saline with Tween-80.
Where [7] appears, read: dose: 100.0 mg/kg/injection, schedule: Q01DX009 (ip), vehicle: saline with Tween-80.
Where [8] appears, read: dose: 200.0 mg/kg/injection, schedule: Q04DX003 (ip), vehicle: saline with Tween-80.
Where [9] appears, read: dose: 400.0 mg/kg/injection, schedule: Q04DX003 (ip), vehicle: saline with Tween-80.
Where [10] appears, read: dose: 100.0 mg/kg/injection, schedule: Q01DX009 (ip), vehicle: saline.
[11] abbreviates: dose: 100.0 mg/kg/injection, schedule: Q04DX003 (ip), vehicle: saline.
Setting [12] is: dose: 200.0 mg/kg/injection, schedule: Q01DX009 (ip), vehicle: saline.
[13] abbreviates: dose: 200.0 mg/kg/injection, schedule: Q04DX003 (ip), vehicle: saline.
[14] abbreviates: dose: 400.0 mg/kg/injection, schedule: Q04DX003 (ip), vehicle: saline.
[15] abbreviates: dose: 100.0 mg/kg/injection, schedule: Q04DX003 (ip), vehicle: Klucel (hydroxypropylcellulose) (HPC).
Setting [16] is: dose: 200.0 mg/kg/injection, schedule: Q04DX003 (ip), vehicle: Klucel (hydroxypropylcellulose) (HPC).
The mark [17] stands for this setting: dose: 400.0 mg/kg/injection, schedule: Q04DX003 (ip), vehicle: Klucel (hydroxypropylcellulose) (HPC).

“And” between values parts separate entries of the source, which are not always exact repeats. Identical values can stand only once. Inconclusive results and toxic doses are left out.

As for `C1CCC2[N-]CC3CCCCC3[N-]CC3CCCCC3[N-]CC3CCCCC3[N-]CC2C1.[Cu]` (stereo unspecified), the T/C was 107 % of control (dose: 0.39 mg/kg/injection, schedule: Q01DX009 (ip), vehicle: saline); 113 % of control (dose: 0.78 mg/kg/injection, schedule: Q01DX009 (ip), vehicle: saline); 166 % of control (dose: 3.12 mg/kg/injection, schedule: Q01DX009 (ip), vehicle: saline); 96 % of control (dose: 6.25 mg/kg/injection, schedule: Q01DX009 (ip), vehicle: saline).
As for `Cc1ccccc1-c1nc2cc(Cl)ccc2c(=O)o1`, the T/C is, setting by setting: (dose: 25.0 mg/kg/injection, schedule: Q04DX003 (ip), vehicle: saline with Tween-80) 104 % of control; under setting [1], 100 % of control; under setting [2], 109 % of control.
Take `CC(CC(O)C(C)(C)C)C(C)(C)C` (stereo unspecified): the T/C under setting [3] was 117 % of control, the T/C under setting [4] was 110 % of control and the T/C under setting [5] is 117 % of control.
With `COC(=O)C1=C(\N2CCOCC2)CCCCC/C=C\1C(=O)OC`, the T/C under setting [5] was 100 % of control and the T/C under setting [6] is 100 % of control.
For `CC(C)COC(=O)C(C)Oc1ccc(Oc2ccc(Cl)cc2)cc1` (stereo unspecified), the T/C is, setting by setting: under setting [5], 98 % of control; under setting [7], 116 % of control; under setting [6], 91 % of control.
In the case of `C/C(CC(C)(C)c1ccccc1)=N/NC(N)=O`, the T/C (dose: 50.0 mg/kg/injection, schedule: Q04DX003 (ip), vehicle: saline sonified) is 90 % of control; the T/C (dose: 100.0 mg/kg/injection, schedule: Q04DX003 (ip), vehicle: saline sonified) is 100 % of control; the T/C (dose: 200.0 mg/kg/injection, schedule: Q04DX003 (ip), vehicle: saline sonified) was 95 % of control.
As for `NC(=S)N/N=C/c1ccc(OC(=O)Cc2ccccc2)cn1`, the T/C under setting [3] is 150 % of control.
Turning to `Cc1sc2ncnc(N)c2c1C`, the T/C under setting [1] is 103 % of control, the T/C under setting [2] was 105 % of control, the T/C under setting [8] was 94 % of control and the T/C under setting [9] was 105 % of control.
As for `O=[As]O`, the T/C is, setting by setting: (dose: 2.0 mg/kg/injection, schedule: Q01DX009 (ip), vehicle: saline) 115 % of control; (dose: 4.0 mg/kg/injection, schedule: Q01DX009 (ip), vehicle: saline) 123 % of control; (dose: 8.0 mg/kg/injection, schedule: Q01DX009 (ip), vehicle: saline) 150 % of control.
`Cc1ccc(Sc2cccc3c(C)c4cccc5c4c(c23)C[S+]5c2ccc(C)cc2)cc1` (stereo unspecified): the T/C runs as follows: (dose: 1.5 mg/kg/injection, schedule: Q04DX003 (ip), vehicle: saline with Tween-80) 100 % of control; (dose: 3.0 mg/kg/injection, schedule: Q04DX003 (ip), vehicle: saline with Tween-80) 104 % of control; (dose: 6.0 mg/kg/injection, schedule: Q04DX003 (ip), vehicle: saline with Tween-80) 100 % of control.
Consider `C[C@@]1(O)CCCC[C@H]1O`, for which the T/C under setting [10] was 100 % of control; the T/C under setting [11] is 110 % of control; the T/C under setting [12] is 100 % of control; the T/C under setting [13] was 100 % of control; the T/C under setting [14] was 100 % of control.
In the case of `COc1cc2ccc3c(c2cc1OC)CN(Cc1ccccc1)CC3`, the T/C under setting [15] is 100 % of control, the T/C under setting [16] was 109 % of control and the T/C under setting [17] is 100 % of control.
With `C[N+](C)(C)CCCC[N+](C)(C)C`, the T/C reads like this: (dose: 25.0 mg/kg/injection, schedule: Q01DX009 (ip), vehicle: saline) 93 % of control; (dose: 50.0 mg/kg/injection, schedule: Q01DX009 (ip), vehicle: saline) 91 % of control; (dose: 50.0 mg/kg/injection, schedule: Q04DX003 (ip), vehicle: saline) 103 % of control; under setting [10], 87 % of control; under setting [11], 103 % of control; under setting [12], 89 % of control and 93 % of control. Also, the T/C is 100 % of control under setting [13]; 93 % of control and 96 % of control (dose: 300.0 mg/kg/injection, schedule: Q01DX009 (ip), vehicle: saline).
Consider `O=C(/C=N/O)c1ccccc1`, for which the T/C runs as follows: (dose: 50.0 mg/kg/injection, schedule: Q04DX003 (ip), vehicle: gum acacia) 100 % of control; (dose: 100.0 mg/kg/injection, schedule: Q04DX003 (ip), vehicle: gum acacia) 96 % of control; (dose: 200.0 mg/kg/injection, schedule: Q04DX003 (ip), vehicle: gum acacia) 96 % of control.
With `O=S(=O)(O)CCC(CO)(CO)CO`, the T/C is 100 % of control under setting [11], 95 % of control under setting [13] and 95 % of control under setting [14].
For the compound `C[C@@H]1O[C@@H](O[C@H]2CC[C@]3(C=O)[C@H]4CC[C@]5(C)[C@@H](c6ccc(=O)oc6)CC[C@]5(O)[C@@H]4CC[C@]3(O)C2)[C@H](O)[C@H](O)[C@H]1O[C@@H]1O[C@H](CO)[C@@H](O)[C@H](O)[C@H]1O`, the T/C was 95 % of control (dose: 0.6 mg/kg/injection, schedule: Q01DX010 (ip), vehicle: carboxymethylcellulose (CMC)); 104 % of control (dose: 1.2 mg/kg/injection, schedule: Q01DX010 (ip), vehicle: carboxymethylcellulose (CMC)); 95 % of control and 120 % of control (dose: 2.5 mg/kg/injection, schedule: Q01DX010 (ip), vehicle: carboxymethylcellulose (CMC)); 100 % of control (dose: 5.0 mg/kg/injection, schedule: Q01DX010 (ip), vehicle: carboxymethylcellulose (CMC)).
For `O=C/C=C/c1cccc([N+](=O)[O-])c1`, the T/C under setting [4] is 110 % of control, the T/C under setting [5] was 115 % of control and the T/C under setting [7] was 119 % of control.
As to `CCOC(=O)Cc1csc(=NC(=O)c2ccccc2)n1N`, the T/C is 108 % of control under setting [5], 115 % of control under setting [7] and 101 % of control under setting [6].
For `CC(C)(C)OC(=O)NNC(=O)C(CSC(c1ccccc1)c1ccccc1)N1C(=O)c2ccccc2C1=O` (stereo unspecified), the T/C runs as follows: under setting [15], 95 % of control; under setting [16], 100 % of control; under setting [17], 90 % of control.
Take `CP12(OC(=O)c3ccccc31)OC(=O)c1ccccc12`: the T/C is, setting by setting: under setting [5], 91 % of control; under setting [7], 91 % of control; under setting [6], 96 % of control.
On to `CCOC(=O)CN1C(=O)S/C(=C/c2ccc([N+](=O)[O-])o2)C1=O`, for which the T/C runs as follows: (dose: 100.0 mg/kg/injection, schedule: Q04DX002 (ip), vehicle: saline with Tween-80) 94 % of control; (dose: 200.0 mg/kg/injection, schedule: Q04DX002 (ip), vehicle: saline with Tween-80) 105 % of control.
For `CCNc1cc(Cl)nc(N)n1`, the T/C by setting is: under setting [3], 95 % of control; under setting [4], 104 % of control; under setting [5], 104 % of control; under setting [2], 108 % of control; under setting [8], 95 % of control; under setting [9], 112 % of control.
With `CC(=O)N1C(=O)NC(=O)C1(C)c1ccc(Cl)s1` (stereo unspecified), the T/C was 92 % of control under setting [5]; 97 % of control under setting [7]; 100 % of control under setting [2]; 113 % of control under setting [6]; 100 % of control under setting [8]; 106 % of control (dose: 400.0 mg/kg/injection, schedule: Q01DX009 (ip), vehicle: saline with Tween-80).

The record behind these values is PubChem BioAssay AID328 (DTP/NCI, 2004).
